Data reported in US6040149A, “Assay for identifying agents which act on the ceramide-activated protein kinase, kinase suppressor of ras, and methods of using said agents” (priority 1997, dated 2000).

Key:
[1] = tested on: ceramide-activated protein kinase; assay: Ceramide-activated protein kinase activity (EGFR peptide) in EL-4 cell fractions; conditions: 10 nM to 1 μM
KSR/Raf-1 complex = assay: Co-immunoprecipitation of KSR and Raf-1 from treated COS-7 cells; type: cell-based, mouse KSR (COS-7 cells); conditions: TNFα
Experimental: FIG. […] Cells were lysed with NP-40 buffer and subjected to 4 hr of immunoprecipitation with anti-Raf-1 antibody. Two controls, KSR and KSR with ceramide treatment, received protein A conjugated sepharose beads without anti-Raf-1 antibody. […] Data represent one of four similar experiments.
Cell lysates were subjected to immunoprecipitation with anti-Flag antibody. Immunoprecipitated samples were handled as in FIG. 24A except Western blot analysis was performed with anti-Raf-1 antibody. Data represent one of three similar experiments.
Anti-Raf-1 antibody conjugated beads were prepared by overnight incubation of 2 μl of anti-Raf-1 antibody (a kind gift of Dr. Debbie Morrison) with 5 mg of the protein A conjugated sepharose beads, followed by washing three times with NP-40 lysis buffer. […] Lysates (0.8 mg total protein) were then incubated for 4 hrs with anti-Raf-1 bound sepharose beads or anti-Flag conjugated agarose beads. The beads were washed vigorously 5 times, boiled in Laemmli sample buffer, and proteins were separated on 7.5% SDS-PAGE. After electrophoresis, the gel was transferred to PVDF membrane and probed with anti-Flag antibody or anti-Raf-1 antibody.

KSR = biological target: T1, KSR (Mus musculus, UniProt Q61097); assay: Phosphorylation and activation of recombinant Raf-1 by KSR immunoprecipitated from treated COS-7 cells; type: cell-based, mouse (KSR expressed in COS-7 cells); conditions: C2-ceramide 1 μM; TNFα 10 nM
T1 sequence (Q61097 1-873): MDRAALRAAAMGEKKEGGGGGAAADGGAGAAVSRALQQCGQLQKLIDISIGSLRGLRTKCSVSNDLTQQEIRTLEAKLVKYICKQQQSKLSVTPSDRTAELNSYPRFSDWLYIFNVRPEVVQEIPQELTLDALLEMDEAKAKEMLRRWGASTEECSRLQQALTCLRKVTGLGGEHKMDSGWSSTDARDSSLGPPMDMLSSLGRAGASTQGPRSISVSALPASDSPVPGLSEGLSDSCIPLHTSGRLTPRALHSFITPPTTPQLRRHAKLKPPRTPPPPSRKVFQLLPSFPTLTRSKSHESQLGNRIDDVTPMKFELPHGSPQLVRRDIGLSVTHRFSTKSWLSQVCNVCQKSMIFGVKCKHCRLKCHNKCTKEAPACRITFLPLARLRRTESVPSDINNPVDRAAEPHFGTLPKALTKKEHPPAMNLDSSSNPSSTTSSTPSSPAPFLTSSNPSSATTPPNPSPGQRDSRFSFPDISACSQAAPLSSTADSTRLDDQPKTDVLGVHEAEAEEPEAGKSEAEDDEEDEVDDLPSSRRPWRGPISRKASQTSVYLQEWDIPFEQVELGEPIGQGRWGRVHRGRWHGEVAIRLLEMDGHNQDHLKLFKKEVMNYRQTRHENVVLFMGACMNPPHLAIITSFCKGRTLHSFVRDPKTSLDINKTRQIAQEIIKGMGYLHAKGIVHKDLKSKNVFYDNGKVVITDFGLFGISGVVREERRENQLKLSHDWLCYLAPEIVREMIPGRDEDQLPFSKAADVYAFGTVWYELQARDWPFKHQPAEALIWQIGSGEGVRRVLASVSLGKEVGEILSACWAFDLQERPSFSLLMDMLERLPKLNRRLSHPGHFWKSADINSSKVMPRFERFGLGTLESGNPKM
Experimental: FIGS. 23B-23C--COS-7 cells expressing Flag-tagged KSR were stimulated with 1 μM C2-ceramide for 10 min and lysed with NP-40 buffer as in FIG. 23A. […] The autoradiogram was exposed for 1 hour. Data represent one of three experiments.
COS-7 cells expressing Flag-tagged KSR were stimulated with 10 nM TNFα for the times indicated and lysed with NP-40 buffer as in FIG. 2A. […] The autoradiogram was exposed for 1 hour. Data represent one of three similar experiments.
Immunoprecipitated KSR was incubated with reaction buffer A containing 0.5 mM ATP and a protein kinase inhibitor cocktail [20 μM PKC inhibitor peptide (UBI), 2 μM protein kinase A inhibitor peptide (UBI) and 20 μM R24571 (Sigma)] for 30 min at 22° C.

Compound | enhancement of kinase activity, of control [1] | KSR complex formation with Raf-1 (KSR/Raf-1 complex) | activity of immunoprecipitated KSR to phosphorylate and activate Raf-1 (KSR)
CCCCCCCCCCCCC/C=C/[C@@H](O)[C@@H](N)CO [sphingosine] | 1.5-2.5 of control |  | 
TNF-α |  | induced KSR to complex with Raf-1 | stimulated dramatically
